This test deals with T1, PE-labeled human PD-L1-Ig binding to Jurkat cell line over-expressing human PD-1 (Jurkat-PD-1) (Homo sapiens, UniProt Q15116).
T1 construct: expressed in transfected cells; host or cells: Jurkat
The experiment in a line: Jurkat-PD-1 Cell Binding High-Content Screening Assay (CBA): Method 1.

Setting [1] is: Jurkat-hPD-1 cells, PE-labeled PD-L1-Ig 20 nM final, read-out: Jurkat HPDL1 PD1 IC50 (uM) (Method 1).

Drawing on US20240409585A1, “MACROCYCLIC IMMUNOMODULATORS” (priority 2021, published 2024), this text covers IC50 for 15 compounds.

A word on the IC50: it is the concentration at which inhibition is half-maximal.

Like-named read-outs stand apart in the source and are kept apart here. Bridge positions count the residues as written; N and C are the ends. Square brackets hold non-standard residues; d marks the D form. Peptide text beside a SMILES is read from it. * marks the point of attachment. ξ: configuration not given here. Bip(4'-NHAc) = CC(=O)Nc1ccc(-c2ccc(C[C@H](N)C(=O)O)cc2)cc1; Phe(4-COOH) = N[C@@H](Cc1ccc(C(=O)O)cc1)C(=O)O; Bip = N[C@@H](Cc1ccc(-c2ccccc2)cc1)C(=O)O; Phe(3-Cl) = N[C@@H](Cc1cccc(Cl)c1)C(=O)O; Phe(3-Me) = Cc1cccc(C[C@H](N)C(=O)O)c1; Val(3-OH) = CC(C)(O)[C@H](N)C(=O)O; 3Pal = N[C@@H](Cc1cccnc1)C(=O)O; 4Pal = N[C@@H](Cc1ccncc1)C(=O)O; Cha = N[C@@H](CC1CCCCC1)C(=O)O; Cit = NC(=O)NCCC[C@H](N)C(=O)O; Ile(3ξ) = CCC(C)[C@H](N)C(=O)O; Thr(3ξ) = CC(O)[C@H](N)C(=O)O; NMeNle = CCCC[C@H](NC)C(=O)O; Pip = O=C(O)[C@@H]1CCCCN1; dDab = NCC[C@@H](N)C(=O)O; Carboxymethyl = O=C(O)C*; NMeA = CN[C@@H](C)C(=O)O; Orn = NCCC[C@H](N)C(=O)O; dDap = NC[C@@H](N)C(=O)O; Dab = NCC[C@H](N)C(=O)O; Dap = NC[C@H](N)C(=O)O

T1 sequence (Q15116 25-288): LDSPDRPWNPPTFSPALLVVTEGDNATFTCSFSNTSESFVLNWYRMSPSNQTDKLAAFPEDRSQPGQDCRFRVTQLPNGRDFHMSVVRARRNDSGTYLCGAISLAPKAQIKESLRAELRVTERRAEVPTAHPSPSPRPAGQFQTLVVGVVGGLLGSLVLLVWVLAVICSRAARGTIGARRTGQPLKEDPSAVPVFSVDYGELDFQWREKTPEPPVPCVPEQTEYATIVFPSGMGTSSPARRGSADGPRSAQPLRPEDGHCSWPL

With `CC(C)C[C@@H]1NC(=O)[C@H](CCN)NC(=O)[C@@H](CC(C)C)NC(=O)[C@H](C)N(C)C(=O)[C@H](C(C)C)NC(=O)[C@H](Cc2ccc(-c3ccccc3)cc2)NC(=O)[C@H](C(C)C)NC(=O)[C@H](Cc2c[nH]c3ccccc23)NC(=O)[C@H](CC(=O)O)NC(=O)[C@H](Cc2ccc(C(=O)O)cc2)NC(=O)[C@H](CN)NC(=O)CSC[C@@H](C(=O)N[C@@H](C)C(N)=O)NC(=O)[C@H]([C@@H](C)O)NC(=O)[C@H](C(C)C)NC1=O` [Compound 1416] ({CH2CO}-[Dap][Phe(4-COOH)]DWV[Bip]V[NMeA][dL][Dab]LVTCA-NH2; thioether N-14), the IC50 (Jurkat HPDL1 PD1 IC50 (Method 1), cells printed in nM, Jurkat-hPD-1 cells, PE-labeled PD-L1-Ig 20 nM final, unit nM) is 4.7 nM.

In the case of `Cc1cccc(C[C@@H]2NC(=O)[C@H](CC(=O)O)NC(=O)[C@H](Cc3ccc(OCC(=O)O)cc3)NC(=O)[C@H](CN)NC(=O)CSC[C@@H](C(=O)N[C@@H](CCN)C(N)=O)NC(=O)[C@@H](CCN)NC(=O)[C@H](C(C)C)NC(=O)[C@H](CC3CCCCC3)NC(=O)[C@H](CCN)NC(=O)[C@@H](CC(C)C)NC(=O)[C@H](C)N(C)C(=O)[C@H](Cc3ccc(O)cc3)NC(=O)[C@H](Cc3ccc(-c4ccccc4)cc3)NC(=O)[C@H](Cc3ccc(O)cc3)NC2=O)c1` [Compound 1873] ({CH2CO}-[Dap]Y(Carboxymethyl)D[Phe(3-Me)]Y[Bip]Y[NMeA][dL][Dab][Cha]V[dDab]C[Dab]-NH2; thioether N-14), under setting [1], the 50% inhibitory concentration (IC50) turned out to be 30 nM.

With `Cc1cccc(C[C@@H]2NC(=O)[C@H](CC(=O)O)NC(=O)[C@H](Cc3ccc(O)cc3)NC(=O)[C@H](CC(N)=O)NC(=O)CSC[C@@H](C(=O)N[C@@H](CCN)C(N)=O)NC(=O)[C@H]([C@@H](C)O)NC(=O)[C@H](C(C)C)NC(=O)[C@H](CC3CCCCC3)NC(=O)[C@H](CCN)NC(=O)[C@@H](CC(C)C)NC(=O)[C@H](C)N(C)C(=O)[C@H](CCCNC(N)=O)NC(=O)[C@H](Cc3ccc(-c4ccccc4)cc3)NC(=O)[C@H](C(C)(C)O)NC2=O)c1` [Compound 1703] ({CH2CO}-NYD[Phe(3-Me)][Val(3-OH)][Bip][Cit][NMeA][dL][Dab][Cha]VTC[Dab]-NH2; thioether N-14), the IC50 under setting [1] is 20 nM.

As for `CC(C)C[C@@H]1NC(=O)[C@H](Cc2c[nH]c3ccccc23)NC(=O)[C@H](CC(=O)O)NC(=O)[C@H](Cc2ccncc2)NC(=O)[C@H](CN)NC(=O)CSC[C@@H](C(=O)NCC(N)=O)NC(=O)[C@H](CO)NC(=O)[C@H](C(C)C)NC(=O)[C@H](CC(C)C)NC(=O)[C@H](CC(N)=O)NC(=O)[C@@H](CC(C)C)NC(=O)[C@H](C)N(C)C(=O)[C@H](C(C)C)NC(=O)[C@H](Cc2ccc(-c3ccccc3)cc2)NC1=O` [Compound 1549] ({CH2CO}-[Dap][4Pal]DWL[Bip]V[NMeA][dL]NLVSCG-NH2; thioether N-14), the concentration for half-maximal inhibition (IC50) under setting [1] was found to be 40 nM.

For `CC[C@H](C)[C@@H]1NC(=O)[C@H](Cc2ccc(-c3ccccc3)cc2)NC(=O)[C@H](C(C)C)NC(=O)[C@H](Cc2cccc(C)c2)NC(=O)[C@H](CC(=O)O)NC(=O)[C@H](Cc2ccc(O)cc2)NC(=O)[C@H](CC(N)=O)NC(=O)CSC[C@@H](C(=O)N[C@H](C)C(N)=O)NC(=O)[C@H](CCC(=O)O)NC(=O)[C@H](C(C)(C)O)NC(=O)[C@H](CC2CCCCC2)NC(=O)[C@H](CCN)NC(=O)[C@@H](CC(C)C)NC(=O)[C@H](C)N(C)C1=O` [Compound 1696] ({CH2CO}-NYD[Phe(3-Me)]V[Bip]I[NMeA][dL][Dab][Cha][Val(3-OH)]EC[dA]-NH2; thioether N-14), the IC50 under setting [1] is 10 nM.

On to `CC(C)C[C@@H]1NC(=O)[C@H](Cc2c[nH]c3ccccc23)NC(=O)[C@H](CC(=O)O)NC(=O)[C@H](Cc2ccc(O)cc2)NC(=O)[C@H](Cc2ccccc2)NC(=O)CSC[C@@H](C(=O)N[C@@H](C)C(N)=O)NC(=O)[C@H](CO)NC(=O)[C@H](C(C)C)NC(=O)[C@H](CC(C)C)NC(=O)[C@H](CC(N)=O)NC(=O)[C@@H](CN)NC(=O)[C@H](C)N(C)C(=O)[C@H](C(C)C)NC(=O)[C@H](Cc2ccc(-c3ccccc3)cc2)NC1=O` [Compound 1787] ({CH2CO}-FYDWL[Bip]V[NMeA][dDap]NLVSCA-NH2; thioether N-14), for which, under setting [1], the half-maximal inhibitory concentration (IC50) is 100 nM.

With `COc1ccc(C[C@@H]2NC(=O)[C@H](Cc3ccccc3)NC(=O)CSC[C@@H](C(=O)N[C@@H](C)C(N)=O)NC(=O)[C@H]([C@@H](C)O)NC(=O)[C@H](C(C)C)NC(=O)[C@H](CC(C)C)NC(=O)[C@H](CCCNC(=N)N)NC(=O)[C@@H](CC(C)C)NC(=O)[C@H](C)N(C)C(=O)[C@H](CCCNC(=N)N)NC(=O)[C@H](Cc3ccc(-c4ccccc4)cc3)NC(=O)[C@H](C(C)C)NC(=O)[C@H](Cc3c[nH]c4ccccc34)NC(=O)[C@H](CC(=O)O)NC2=O)cc1` [Compound 1091] ({CH2CO}-FY(Me)DWV[Bip]R[NMeA][dL]RLVTCA-NH2; thioether N-14), under setting [1], the IC50 turned out to be 90 nM.

Consider `Cc1cccc(C[C@@H]2NC(=O)[C@H](CC(=O)O)NC(=O)[C@H](Cc3ccc(OCC(=O)O)cc3)NC(=O)[C@H](CN)NC(=O)CSC[C@@H](C(N)=O)NC(=O)[C@H](CCC(N)=O)NC(=O)[C@H](C(C)C)NC(=O)[C@H](CC3CCCCC3)NC(=O)[C@H](CCN)NC(=O)[C@@H](CC(C)C)NC(=O)[C@@H]3CCCCN3C(=O)[C@H](Cc3ccc(OCC(=O)O)cc3)NC(=O)[C@H](Cc3ccc(-c4ccccc4)cc3)NC(=O)[C@H](Cc3ccc(OCC(=O)O)cc3)NC2=O)c1` [Compound 1896] ({CH2CO}-[Dap]Y(Carboxymethyl)D[Phe(3-Me)]Y(Carboxymethyl)[Bip]Y(Carboxymethyl)[Pip][dL][Dab][Cha]VQC-NH2; thioether N-14), for which the IC50 under setting [1] amounted to 190 nM.

Regarding `CC(C)C[C@@H]1NC(=O)[C@H](CCCN)NC(=O)[C@@H](CC(C)C)NC(=O)[C@H](C)N(C)C(=O)[C@H](CCCN)NC(=O)[C@H](Cc2ccc(-c3ccccc3)cc2)NC(=O)[C@H](C(C)C)NC(=O)[C@H](Cc2c[nH]c3ccccc23)NC(=O)[C@H](CC(=O)O)NC(=O)[C@H](Cc2ccc(O)cc2)NC(=O)[C@H](CC(N)=O)NC(=O)CSC[C@@H](C(=O)N[C@@H](C)C(N)=O)NC(=O)[C@H]([C@@H](C)O)NC(=O)[C@H](C(C)C)NC1=O` [Compound 1241] ({CH2CO}-NYDWV[Bip][Orn][NMeA][dL][Orn]LVTCA-NH2; thioether N-14), the IC50 under setting [1] stood at 20 nM.

Take `CC(=O)Nc1ccc(-c2ccc(C[C@@H]3NC(=O)[C@H](C(C)C)NC(=O)[C@H](Cc4c[nH]c5ccccc45)NC(=O)[C@H](CC(=O)O)NC(=O)[C@H](Cc4ccc(O)cc4)NC(=O)[C@H](Cc4ccccc4)NC(=O)CSC[C@@H](C(=O)N[C@@H](C)C(N)=O)NC(=O)[C@H]([C@@H](C)O)NC(=O)[C@H](C(C)C)NC(=O)[C@H](CC(C)C)NC(=O)[C@H](CCCNC(=N)N)NC(=O)[C@@H](CC(C)C)NC(=O)[C@H](C)N(C)C(=O)[C@H](CCCNC(=N)N)NC3=O)cc2)cc1` [Compound 1067] ({CH2CO}-FYDWV[Bip(4'-NHAc)]R[NMeA][dL]RLVTCA-NH2; thioether N-14): the IC50 under setting [1] was determined as 120 nM.

In the case of `CC(C)C[C@@H]1NC(=O)[C@H](CCN)NC(=O)[C@@H](CC(C)C)NC(=O)[C@H](C)N(C)C(=O)[C@H](CCCNC(N)=O)NC(=O)[C@H](Cc2ccc(-c3ccccc3)cc2)NC(=O)[C@H](C(C)C)NC(=O)[C@H](Cc2c[nH]c3ccccc23)NC(=O)[C@H](CC(=O)O)NC(=O)[C@H](Cc2cccnc2)NC(=O)[C@H](Cc2cccnc2)NC(=O)CSC[C@@H](C(=O)N[C@@H](C)C(N)=O)NC(=O)[C@H]([C@@H](C)O)NC(=O)[C@H](C(C)C)NC1=O` [Compound 1339] ({CH2CO}-[3Pal][3Pal]DWV[Bip][Cit][NMeA][dL][Dab]LVTCA-NH2; thioether N-14), the IC50 under setting [1] was found to be 50 nM.

As for `CCCC[C@H]1C(=O)N[C@H](CC(C)C)C(=O)N[C@@H](CCN)C(=O)N[C@@H](CC(C)C)C(=O)N[C@@H](C(C)C)C(=O)N[C@@H](CO)C(=O)N[C@H](C(=O)N[C@@H](CC(N)=O)C(=O)O)CSCC(=O)N[C@@H](C(C)O)C(=O)N[C@@H](Cc2ccc(OCC(=O)O)cc2)C(=O)N[C@@H](CC(=O)O)C(=O)N[C@@H](Cc2c[nH]c3ccccc23)C(=O)N[C@@H](CC(C)C)C(=O)N[C@@H](Cc2ccc(-c3ccccc3)cc2)C(=O)N[C@@H](C(C)CC)C(=O)N1C` (stereo partly drawn) [Compound 2229] ({CH2CO}-[Thr(3ξ)]Y(Carboxymethyl)DWL[Bip][Ile(3ξ)][NMeNle][dL][Dab]LVSCN-OH; thioether N-14), under setting [1], the IC50 is 110 nM.

For the compound `CC(C)C[C@@H]1NC(=O)[C@H](CC(N)=O)NC(=O)[C@@H](CC(C)C)NC(=O)[C@H](C)N(C)C(=O)[C@H](CCCNC(=N)N)NC(=O)[C@H](Cc2ccc(-c3ccccc3)cc2)NC(=O)[C@H](C(C)C)NC(=O)[C@H](Cc2c[nH]c3ccccc23)NC(=O)[C@H](CC(=O)O)NC(=O)[C@H](Cc2ccc(O)cc2)NC(=O)[C@H](CC(N)=O)NC(=O)CSC[C@@H](C(=O)N[C@@H](C)C(N)=O)NC(=O)[C@H]([C@@H](C)O)NC(=O)[C@H](C(C)C)NC1=O` [Compound 1245] ({CH2CO}-NYDWV[Bip]R[NMeA][dL]NLVTCA-NH2; thioether N-14), the IC50 under setting [1] worked out at 100 nM.

`CC(C)C[C@@H]1NC(=O)[C@H](CCN)NC(=O)[C@@H](CC(C)C)NC(=O)[C@H](C)N(C)C(=O)[C@H](CCCNC(=N)N)NC(=O)[C@H](Cc2ccc(-c3ccccc3)cc2)NC(=O)[C@H](C(C)C)NC(=O)[C@H](Cc2c[nH]c3ccccc23)NC(=O)[C@H](CC(=O)O)NC(=O)[C@H](Cc2cccc(Cl)c2)NC(=O)[C@H](CC(N)=O)NC(=O)CSC[C@@H](C(=O)N[C@@H](C)C(N)=O)NC(=O)[C@H]([C@@H](C)O)NC(=O)[C@H](C(C)C)NC1=O` [Compound 1316] ({CH2CO}-N[Phe(3-Cl)]DWV[Bip]R[NMeA][dL][Dab]LVTCA-NH2; thioether N-14): under setting [1], the IC50 was 50 nM.

`CCC(C)[C@@H]1NC(=O)[C@H](Cc2ccc(-c3ccccc3)cc2)NC(=O)[C@H](C(C)C)NC(=O)[C@H](Cc2cccc(C)c2)NC(=O)[C@H](CC(=O)O)NC(=O)[C@H](Cc2cccc(C)c2)NC(=O)[C@H](Cc2ccncc2)NC(=O)CSC[C@@H](C(=O)N[C@@H](CO)C(=O)O)NC(=O)[C@H](CO)NC(=O)[C@H](C(C)C)NC(=O)[C@H](CC2CCCCC2)NC(=O)[C@H](CCN)NC(=O)[C@@H](CC(C)C)NC(=O)[C@H](C)N(C)C1=O` (stereo partly drawn) [Compound 2233] ({CH2CO}-[4Pal][Phe(3-Me)]D[Phe(3-Me)]V[Bip][Ile(3ξ)][NMeA][dL][Dab][Cha]VSCS-OH; thioether N-14): the IC50 (Jurkat HPDL1 PD1 IC50 (uM) (Method 1)) amounted to 20 nM.
